Experiment: cn = amount concentration of the nth substance listed, in mol/dm3
Settings: 101 kPa, Liquid, Alternating current cell with electrodes

CCCCn1cc[n+](C)c1.[I-] [1-butyl-3-methylimidazolium iodide] + O
Settings | molar conductivity [S·m2/mol]
298.15 K, c1 = 0.0009058 | 0.0138
298.15 K, c1 = 0.001366 | 0.0137
298.15 K, c1 = 0.002017 | 0.0136
298.15 K, c1 = 0.002809 | 0.0135
298.15 K, c1 = 0.003715 | 0.0134
298.15 K, c1 = 0.00495 | 0.0133
298.15 K, c1 = 0.006082 | 0.0132
298.15 K, c1 = 0.007529 | 0.0131
298.15 K, c1 = 0.009093 | 0.0129
298.15 K, c1 = 0.01105 | 0.0127
298.15 K, c1 = 0.01306 | 0.0126
298.15 K, c1 = 0.01489 | 0.0125
298.15 K, c1 = 0.01706 | 0.0123
298.15 K, c1 = 0.01978 | 0.0122
298.15 K, c1 = 0.02281 | 0.012
308.15 K, c1 = 0.0004602 | 0.0139
308.15 K, c1 = 0.0008351 | 0.0138
308.15 K, c1 = 0.001278 | 0.0137
308.15 K, c1 = 0.001726 | 0.0135
308.15 K, c1 = 0.002088 | 0.0135
308.15 K, c1 = 0.00254 | 0.0133
308.15 K, c1 = 0.003341 | 0.0132
308.15 K, c1 = 0.004184 | 0.0131
308.15 K, c1 = 0.005066 | 0.0129
308.15 K, c1 = 0.006502 | 0.0127
308.15 K, c1 = 0.007827 | 0.0126
308.15 K, c1 = 0.009685 | 0.0124
308.15 K, c1 = 0.01153 | 0.0122
318.15 K, c1 = 0.0002077 | 0.0144
318.15 K, c1 = 0.0005721 | 0.0143
318.15 K, c1 = 0.000962 | 0.0142
318.15 K, c1 = 0.001339 | 0.0141
318.15 K, c1 = 0.002111 | 0.0139
318.15 K, c1 = 0.002755 | 0.0138
318.15 K, c1 = 0.003581 | 0.0136
318.15 K, c1 = 0.004395 | 0.0134
318.15 K, c1 = 0.005399 | 0.0132
318.15 K, c1 = 0.006692 | 0.013
318.15 K, c1 = 0.007942 | 0.0128
318.15 K, c1 = 0.009561 | 0.0126
318.15 K, c1 = 0.01162 | 0.0124
328.15 K, c1 = 0.0004059 | 0.0146
328.15 K, c1 = 0.00074 | 0.0145
328.15 K, c1 = 0.001116 | 0.0143
328.15 K, c1 = 0.001865 | 0.0141
328.15 K, c1 = 0.002626 | 0.0139
328.15 K, c1 = 0.003374 | 0.0138
328.15 K, c1 = 0.004072 | 0.0137
328.15 K, c1 = 0.005214 | 0.0134
328.15 K, c1 = 0.006444 | 0.0132
328.15 K, c1 = 0.007599 | 0.013
328.15 K, c1 = 0.009252 | 0.0128
328.15 K, c1 = 0.01045 | 0.0126
328.15 K, c1 = 0.01188 | 0.0125

CCCCCn1cc[n+](C)c1.[Br-] [1-pentyl-3-methylimidazolium bromide] + O
Settings | molar conductivity [S·m2/mol]
298.15 K, c1 = 0.000384 | 0.0111
298.15 K, c1 = 0.0008844 | 0.0111
298.15 K, c1 = 0.001373 | 0.011
298.15 K, c1 = 0.001897 | 0.011
298.15 K, c1 = 0.002397 | 0.0109
298.15 K, c1 = 0.003002 | 0.0108
298.15 K, c1 = 0.004323 | 0.0107
298.15 K, c1 = 0.005743 | 0.0106
298.15 K, c1 = 0.00718 | 0.0105
298.15 K, c1 = 0.008646 | 0.0104
298.15 K, c1 = 0.01011 | 0.0102
298.15 K, c1 = 0.01145 | 0.0102
298.15 K, c1 = 0.01293 | 0.01
308.15 K, c1 = 0.0006353 | 0.0115
308.15 K, c1 = 0.001306 | 0.0114
308.15 K, c1 = 0.002028 | 0.0113
308.15 K, c1 = 0.002681 | 0.0113
308.15 K, c1 = 0.003351 | 0.0112
308.15 K, c1 = 0.003975 | 0.0111
308.15 K, c1 = 0.004605 | 0.011
308.15 K, c1 = 0.00598 | 0.0109
308.15 K, c1 = 0.007554 | 0.0107
308.15 K, c1 = 0.008895 | 0.0106
308.15 K, c1 = 0.01033 | 0.0105
308.15 K, c1 = 0.01176 | 0.0103
308.15 K, c1 = 0.01422 | 0.0101
318.15 K, c1 = 0.0004898 | 0.0136
318.15 K, c1 = 0.001056 | 0.0135
318.15 K, c1 = 0.002177 | 0.0134
318.15 K, c1 = 0.003249 | 0.0131
318.15 K, c1 = 0.004768 | 0.0128
318.15 K, c1 = 0.006798 | 0.0124
318.15 K, c1 = 0.009143 | 0.012
318.15 K, c1 = 0.01259 | 0.0115
318.15 K, c1 = 0.01687 | 0.0109
318.15 K, c1 = 0.02234 | 0.0103
328.15 K, c1 = 0.0004268 | 0.0146
328.15 K, c1 = 0.0008311 | 0.0141
328.15 K, c1 = 0.001314 | 0.0139
328.15 K, c1 = 0.002252 | 0.0137
328.15 K, c1 = 0.003274 | 0.0135
328.15 K, c1 = 0.004773 | 0.0133
328.15 K, c1 = 0.006329 | 0.0131
328.15 K, c1 = 0.008289 | 0.0128
328.15 K, c1 = 0.01078 | 0.0125
328.15 K, c1 = 0.01389 | 0.0122
328.15 K, c1 = 0.01791 | 0.0118
328.15 K, c1 = 0.02233 | 0.0115
328.15 K, c1 = 0.02611 | 0.0111

CCCCCCn1cc[n+](C)c1.[Br-] [3-hexyl-1-methyl-1H-imidazolium bromide] + O
Settings | molar conductivity [S·m2/mol]
298.15 K, c1 = 0.0004233 | 0.0104
298.15 K, c1 = 0.0008352 | 0.0103
298.15 K, c1 = 0.001327 | 0.0102
298.15 K, c1 = 0.001785 | 0.0101
298.15 K, c1 = 0.002231 | 0.0101
298.15 K, c1 = 0.003203 | 0.00996
298.15 K, c1 = 0.004124 | 0.00983
298.15 K, c1 = 0.005143 | 0.00974
298.15 K, c1 = 0.006841 | 0.00955
298.15 K, c1 = 0.008495 | 0.00941
298.15 K, c1 = 0.01022 | 0.00923
298.15 K, c1 = 0.01211 | 0.00905
298.15 K, c1 = 0.01464 | 0.0088
308.15 K, c1 = 0.0004492 | 0.0108
308.15 K, c1 = 0.001027 | 0.0106
308.15 K, c1 = 0.001581 | 0.0105
308.15 K, c1 = 0.002065 | 0.0104
308.15 K, c1 = 0.002724 | 0.0104
308.15 K, c1 = 0.003914 | 0.0102
308.15 K, c1 = 0.005116 | 0.00999
308.15 K, c1 = 0.006411 | 0.00987
308.15 K, c1 = 0.008535 | 0.00965
308.15 K, c1 = 0.01052 | 0.00946
308.15 K, c1 = 0.0126 | 0.00927
308.15 K, c1 = 0.01458 | 0.00912
318.15 K, c1 = 0.0004492 | 0.011
318.15 K, c1 = 0.001027 | 0.0109
318.15 K, c1 = 0.001581 | 0.0108
318.15 K, c1 = 0.002065 | 0.0107
318.15 K, c1 = 0.002724 | 0.0106
318.15 K, c1 = 0.003914 | 0.0104
318.15 K, c1 = 0.005116 | 0.0103
318.15 K, c1 = 0.006411 | 0.0102
318.15 K, c1 = 0.008535 | 0.00993
318.15 K, c1 = 0.01052 | 0.00971
318.15 K, c1 = 0.0126 | 0.00953
318.15 K, c1 = 0.01458 | 0.00935
328.15 K, c1 = 0.0005148 | 0.0114
328.15 K, c1 = 0.001041 | 0.0113
328.15 K, c1 = 0.001608 | 0.0111
328.15 K, c1 = 0.002215 | 0.011
328.15 K, c1 = 0.002695 | 0.0109
328.15 K, c1 = 0.003725 | 0.0107
328.15 K, c1 = 0.004772 | 0.0105
328.15 K, c1 = 0.005836 | 0.0103
328.15 K, c1 = 0.007462 | 0.0102
328.15 K, c1 = 0.00911 | 0.00996
328.15 K, c1 = 0.0107 | 0.00985
328.15 K, c1 = 0.01243 | 0.00963
328.15 K, c1 = 0.0147 | 0.00945
